Results reported in US7615514B2, “Selective herbicides based on substituted arylsulphonylaminocarbonyl-triazolinones and safeners” (Bayer CropScience AG, priority 2001, dated 2009).

Test system: Winter barley
Assay: Post-emergence test/greenhouse: damage to crop plants
Type: in vivo
Conditions: greenhouse, about three weeks after application
Experimental: The active compound (flucarbazone-sodium and propoxycarbazone-sodium were each used as WG 70) or safener components are in each case dissolved in a few ml (generally 2-3 ml) of solvent (generally acetone or N,N-dimethyl-formamide), and the solutions are combined and then—if appropriate after addition of an emulsifier—diluted with water to the desired concentration. In general, an aqueous spray liquor was prepared using 0.5% of the additive Renex-36. The test plants are grown under controlled conditions (temperature, light, atmospheric humidity) in a greenhouse. The test plants are sprayed when they have reached a height of 5-15 cm. The concentration of the spray liquor is chosen such that the particular amounts of active compound desired are applied in 500 l of water/ha. After spraying, the pots with the test plants are kept in a greenhouse chamber under controlled conditions (temperature, light, atmospheric humidity) until the test has ended. About three weeks after the application, the degree of damage to the crop plants is rated in % damage in comparison to the development of the untreated control. The figures denote: • 0%=no damage (like untreated control) • 100%=total destruction/damage

Structure (SMILES)	Damage Winter barley (in %) (application rate 8 g of a.i./ha) [%]	Damage Winter barley (in %) (application rate 2 g of a.i./ha) [%]	Damage Winter barley (in %) (application rate 4 g of a.i./ha, 0%=no damage, 100%=total destruction) [%]
COc1nn(C(=O)NS(=O)(=O)c2ccccc2OC(F)(F)F)c(=O)n1C [flucarbazone-sodium, 2-(2-trifluoromethoxyphenylsulphonylaminocarbonyl)-4-methyl-5-methoxy-2,4-dihydro-3H-1,2,4-triazol-3-one]	40	–	–
CCCOc1nn(C(=O)NS(=O)(=O)c2ccccc2C(=O)OC)c(=O)n1C [propoxycarbazone-sodium, 2-(2-methoxycarbonylphenylsulphonylaminocarbonyl)-4-methyl-5-n-propoxy-2,4-dihydro-3H-1,2,4-triazol-3-one]	–	35	60
